Assay results reported in article PMC5915149, “The role of oxidative stress in activity of anticancer thiosemicarbazones” (Oncotarget, 2018).
Read-outs that look alike come from different tables or passages of the source.

Legend:
calf-thymus DNA (CT-DNA) = system: calf-thymus DNA (CT-DNA); set-up: method as in PMID 26599982; details: cited from earlier work
NHDF = experiment: MTS cytotoxicity assay, normal fibroblasts; format: cell-based, human; details: Homo sapiens, NHDF, 96 h incubation
Protocol: (§1) The cells were seeded in 96-well plates (Nunc) at a density of 3,500 cells/well (HCT116 and MCF-7) and 3,000 cells/well (NHDF) and incubated at 37° C for 24 h. The assay was performed following a 96 h incubation with varying concentrations of the compounds that were being tested. Then, 20 µL of CellTiter 96® AQueous One Solution-MTS (Promega) was added to each well (with 100 µL DMEM without phenol red) and incubated for 1 h at 37° C. The optical densities of the samples were analyzed at 490 nm using a multi-plate reader (Synergy 4, Bio Tek). Results were expressed as a percentage of the control and calculated as the inhibitory concentration (IC50) values (using GraphPad Prism 5). The IC50 parameter was defined as the compound concentration that was necessary to reduce the proliferation of cells to 50% of the untreated control. Each individual compound was tested in triplicate in a single experiment with each experiment being repeated three or four times.

HCT116 = experiment: MTS antiproliferative assay, HCT116 (with or without added metal ions); format: cell-based, human; details: for IC50: Homo sapiens, HCT-116
Protocol: as §1
(§2) The HCT116 and MCF-7 cells were seeded in 96-well plates (Nunc) at a density of 3,500 cells/well and incubated at 37° C for 24 h. The MTS assay was performed following a 96 h incubation with varying concentrations of the tested compounds. Additionally, a 20 µM solution of CuSO4, FeSO4 or FeCl3 was added into wells with the tested compounds. The results were expressed as a percentage of the control and calculated as the inhibitory concentration (IC50) values using GraphPad Prism 5. Each individual compound was tested in triplicate in a single experiment with each experiment being repeated three times.

MCF-7 = experiment: MTS antiproliferative assay, MCF-7 (with or without added metal ions); format: cell-based, human; details: for IC50: Homo sapiens, MCF7
Protocol: as §1, §2

COc1cccc2c1C(=O)c1c(O)c3c(c(O)c1C2=O)C[C@@](O)(C(=O)CO)C[C@@H]3O[C@H]1C[C@H](N)[C@H](O)[C@H](C)O1 [DOX, doxorubicin, reference compound]
% hypochromism (calf-thymus DNA (CT-DNA); bound to CT-DNA): 34.2% | Changes in absorbance (calf-thymus DNA (CT-DNA); bound to CT-DNA): hypochromism | Δε (calf-thymus DNA (CT-DNA); bound to CT-DNA): 3235.6 M⁻¹ cm⁻¹ | % hypochromism (calf-thymus DNA (CT-DNA); bound to CT-DNA, listed as doxorubicin): about 34.2% | blue/red shift (calf-thymus DNA (CT-DNA); wavelengths of maximum absorption, compound alone vs DNA-bound): 10 nm | IC50 (NHDF): 0.137 ± 0.026 µM | IC50 (HCT116; 96 h, 20 µM CuSO4 added, read-out: Activity - IC50 HCT116+ Cu^2+): 0.0625 ± 0.00824 µM | IC50 (HCT116; 96 h, 20 µM FeCl3 added, read-out: Activity - IC50 HCT116+ Fe^3+): 0.0848 ± 0.0112 µM | IC50 (HCT116; 96 h incubation, MTS, read-out: Activity - IC50 HCT116): 0.091 ± 0.00696 µM | Selectivity index, calculated for HCT116 (HCT116; versus NHDF): 1.5 | IC50 (MCF-7; 96 h, 20 µM CuSO4 added, read-out: Activity - IC50 MCF-7+ Cu^2+): 0.336 ± 0.0653 µM | IC50 (MCF-7; 96 h, 20 µM FeCl3 added, read-out: Activity - IC50 MCF-7+ Fe^3+): 0.414 ± 0.059 µM | IC50 (MCF-7; 96 h incubation, MTS, read-out: Activity - IC50 MCF-7): 0.405 ± 0.038 µM | Selectivity index, calculated for MCF-7 (MCF-7; versus NHDF): 0.3
